From ChEMBL document CHEMBL4316641, “Synthesis and Anti-HIV Profile of a Novel Tetrahydroindazolylbenzamide Derivative Obtained by Oxazolone Chemistry” (ACS Med Chem Lett, 2019)
One block for each compound: values may come before it. Activity calls are given as the source filed them. The rule behind the calls is not given here.

Tests used:
[1] = tested on: Human immunodeficiency virus; assay: Inhibition of reverse transcriptase in HIV1 NL4.3 infected in human HeLaP4 cells assessed as reduction in formation of reverse transcribed DNA at 50 fold antiviral EC50 incubated up to 60 mins by quantitative PCR analysis; type: cell-based
[2] = Cytotoxicity against human MT4 cells assessed as reduction in cell viability by MTT assay; type: cell-based
[3] = Selectivity index, ratio of CC50 for cytotoxicity against human MT4 cells assessed as reduction in cell viability by MTT assay to EC50 for antiviral activity against HIV infected in human MT4 cells assessed as inhibition of virus-induced cytopathogenicity by MTT assay; type: toxicity, cell-based; settings: read-out: Ratio CC50/EC50
[4] = tested on: Human immunodeficiency virus; assay: Inhibition of reverse transcriptase in HIV1 NL4.3 infected in human HeLaP4 cells assessed as reduction in integrated provirus formation at 50 fold antiviral EC50 incubated up to 60 mins by quantitative PCR analysis; type: cell-based
[5] = molecular target: Human immunodeficiency virus type 1 integrase (Human immunodeficiency virus 1) (UniProt Q7ZJM1); assay: Inhibition of HIV integrase strand transfer activity
Sequence of Human immunodeficiency virus type 1 integrase (Human immunodeficiency virus 1) (Q7ZJM1 as listed by the source): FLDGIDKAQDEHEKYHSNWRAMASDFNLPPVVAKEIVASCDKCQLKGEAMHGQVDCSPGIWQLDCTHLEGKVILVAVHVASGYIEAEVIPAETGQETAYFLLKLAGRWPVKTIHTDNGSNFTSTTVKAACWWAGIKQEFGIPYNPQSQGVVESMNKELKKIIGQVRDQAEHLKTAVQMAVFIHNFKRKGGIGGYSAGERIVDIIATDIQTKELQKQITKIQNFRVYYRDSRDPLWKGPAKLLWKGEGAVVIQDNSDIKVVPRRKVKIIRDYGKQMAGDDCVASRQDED

[6] = tested on: Human immunodeficiency virus; assay: Inhibition of reverse transcriptase in HIV1 NL4.3 infected in human HeLaP4 cells assessed as reduction in formation of 2-LTRs at 50 fold antiviral EC50 incubated up to 60 mins by quantitative PCR analysis; type: cell-based
[7] = molecular target: Human immunodeficiency virus type 1 integrase (Human immunodeficiency virus 1) (UniProt Q7ZJM1); assay: Inhibition of integrase in HIV1 NL4.3 infected in human HeLaP4 cells assessed as increase in increase in 2-LTR circles at 50 fold antiviral EC50 incubated up to 60 mins by quantitative PCR analysis; type: cell-based
[8] = tested on: Human immunodeficiency virus; assay: Antiviral activity against HIV infected in human MT4 cells assessed as inhibition of virus-induced cytopathogenicity by MTT assay; type: functional, organism-based
[9] = tested on: Human immunodeficiency virus; assay: Inhibition of reverse transcriptase in HIV1 NL4.3 infected in human HeLaP4 cells assessed as reduction in late reverse transcription by time of addition assay; type: cell-based

Structure (SMILES): Cc1cn([C@H]2C[C@H](N=[N+]=[N-])[C@@H](CO)O2)c(=O)[nH]c1=O
- inhibition [1]: Active

- inhibition [5]: inactive
- inhibition [7]: inactive
Structure (SMILES): CC(NC(=O)c1ccccc1)c1nn(-c2ccc(C(N)=O)cc2)c2c1C(=O)CC(C)(C)C2 (racemic)
- CC50 [2]: 119 µM
- selectivity ratio [3]: 68
- inhibition [1]: Active
- inhibition [4]: Active
- inhibition [6]: Active
- EC50 ([8]; Human immunodeficiency virus 1, MT4, read-out: EC50): 2.77 µM
- inhibition [9]: Active

Structure (SMILES): CC(N)c1nn(-c2ccc(C(=O)O)cc2)c2c1C(=O)CC(C)(C)C2.Cl (racemic)
- EC50 [8]: Not Active

Structure (SMILES): CC(NC(=O)c1ccccc1)c1nn(-c2ccc(C#N)cc2)c2c1C(=O)CC(C)(C)C2 (racemic)
- EC50 [8]: Not Active
